Test results as given in the supplement of paper PMC11208160.

Test: recombinant UMI read abundance after kanamycin selection (control-corrected) (log10(CPM+1)); higher = more efficient recombination; extreme values may be limits of the assay; sequences stand for … in AGTGCAGAGAAAATCGGCCAGTTTTCTCTGCCTGCAGTCCGCATGCCGTGGGACCCCTTGGGTTCTAACCTGTTGCCTAGATTTATGCAGCGGACTGCCTTTCTCCCAAAGTGATAAACCGG…AGGTTGGTTTCACT; site = the 11-nt donor
Outline: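 In a pooled Escherichia coli screen for the IS621 bridge recombinase, donor and donor-binding-loop pairs were each placed with a 12-nt UMI on a plasmid bearing a promoterless kanamycin gene. This library was co-electroporated with a target plasmid encoding a fixed target and T7-inducible recombinase, and cells were plated either on IPTG (0.07 mM) plus kanamycin or without selection, in two replicates each. Recombinant UMIs were PCR-amplified across the donor–target junction and sequenced, and counts were converted to CPM, averaged over replicates, scaled by control-derived factors and reported as log10(CPM+1).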
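Further: IS621 bridge recombinase in Escherichia coli cells against a fixed T5 target plasmid.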

With “GCTGCTGCATGGACCGGTTTTCCCGGTAATCCGTATTTGCC (site GCTTCTGCTGG)” the “recombinant UMI read abundance (log10)” value was 0.
For “GCTGCTTCATGGACCGGTTTTCCCGGTAATCCGTATTTGTA (site GCTGCTTCTTA)”, the “recombinant UMI read abundance (log10)” value was 0.981.
For “GCTGGAGCATGGACCGGTTTTCCCGGTAATCCGTATTTGAG (site GCTGGAGCTCT)”, the “recombinant UMI read abundance (log10)” value was 1.41.
For “GCTGGCGCATGGACCGGTTTTCCCGGTAATCCGTATTTGTA (site GCTGGCGCTTA)”, the “recombinant UMI read abundance (log10)” value was 0.982.
With “GCTGTTACATGGACCGGTTTTCCCGGTAATCCGTATTTGCG (site GCTGTTACTCG)” the “recombinant UMI read abundance (log10)” value was 1.48.
In the case of “GCTTAGTCATGGACCGGTTTTCCCGGTAATCCGTATTTGTT (site GCTTAGTCTAA)”, the “recombinant UMI read abundance (log10)” value is reported as 2.37.
With “GCTTGCACATGGACCGGTTTTCCCGGTAATCCGTATTTGAT (site GCTTGCACTAT)” the “recombinant UMI read abundance (log10)” value was 1.16.
For “GCTTGCACATGGACCGGTTTTCCCGGTAATCCGTATTTGAT (site GCTTGCCCTAT)”, the “recombinant UMI read abundance (log10)” value was 0.00585.
In the case of “GCTTGCACATGGACCGGTTTTCCCGGTAATCCGTATTTGAT (site GCTTGCGCTAT)”, the “recombinant UMI read abundance (log10)” value is reported as 0.0165.
In the case of “GCTTGCACATGGACCGGTTTTCCCGGTAATCCGTATTTGAT (site GCTTGCTCTAT)”, the “recombinant UMI read abundance (log10)” value is reported as 0.396.
With “GCTTGCCCATGGACCGGTTTTCCCGGTAATCCGTATTTGCT (site GCTTGCCCTAA)” the “recombinant UMI read abundance (log10)” value was 0.0261.
In the case of “GCTTGCCCATGGACCGGTTTTCCCGGTAATCCGTATTTGCT (site GCTTGCCCTAC)”, the “recombinant UMI read abundance (log10)” value is reported as 0.00338.
With “GCTTGCCCATGGACCGGTTTTCCCGGTAATCCGTATTTGCT (site GCTTGCCCTAG)” the “recombinant UMI read abundance (log10)” value was 0.858.
With “GCTTGCCCATGGACCGGTTTTCCCGGTAATCCGTATTTGCT (site GCTTGCCCTAT)” the “recombinant UMI read abundance (log10)” value was 0.0783.
For “GCTTGCGCATGGACCGGTTTTCCCGGTAATCCGTATTTGGT (site GCTTGCGCTAC)”, the “recombinant UMI read abundance (log10)” value was 0.514.
In the case of “GCTTGCTCATGGACCGGTTTTCCCGGTAATCCGTATTTGAT (site GCTTGCACTAT)”, the “recombinant UMI read abundance (log10)” value is reported as 0.00386.
With “GCTTGCTCATGGACCGGTTTTCCCGGTAATCCGTATTTGAT (site GCTTGCCCTAT)” the “recombinant UMI read abundance (log10)” value was 0.
In the case of “GCTTGCTCATGGACCGGTTTTCCCGGTAATCCGTATTTGAT (site GCTTGCGCTAT)”, the “recombinant UMI read abundance (log10)” value is reported as 0.00706.
In the case of “GCTTGCTCATGGACCGGTTTTCCCGGTAATCCGTATTTGAT (site GCTTGCTCTAT)”, the “recombinant UMI read abundance (log10)” value is reported as 1.46.
For “GCTTGTCCATGGACCGGTTTTCCCGGTAATCCGTATTTGAT (site GCTTGACCTAT)”, the “recombinant UMI read abundance (log10)” value was 0.00264.
For “GCTTGTCCATGGACCGGTTTTCCCGGTAATCCGTATTTGAT (site GCTTGCCCTAT)”, the “recombinant UMI read abundance (log10)” value was 0.021.
For “GCTTGTCCATGGACCGGTTTTCCCGGTAATCCGTATTTGAT (site GCTTGGCCTAT)”, the “recombinant UMI read abundance (log10)” value was 0.
In the case of “GCTTGTCCATGGACCGGTTTTCCCGGTAATCCGTATTTGAT (site GCTTGTCCTAT)”, the “recombinant UMI read abundance (log10)” value is reported as 0.
With “GCTTGTTCATGGACCGGTTTTCCCGGTAATCCGTATTTGAA (site GCTTGTTCTTT)” the “recombinant UMI read abundance (log10)” value was 0.489.
For “GCTTGTTCATGGACCGGTTTTCCCGGTAATCCGTATTTGCT (site GCTTGTTCTAG)”, the “recombinant UMI read abundance (log10)” value was 1.84.
In the case of “GGAAACCCATGGACCGGTTTTCCCGGTAATCCGTATTTGCC (site GGAAACCCTGG)”, the “recombinant UMI read abundance (log10)” value is reported as 0.
For “GGAACGACATGGACCGGTTTTCCCGGTAATCCGTATTTGAT (site GGAACGACTAT)”, the “recombinant UMI read abundance (log10)” value was 1.43.
With “GGAATGCCATGGACCGGTTTTCCCGGTAATCCGTATTTGCA (site GGAATGCCTTG)” the “recombinant UMI read abundance (log10)” value was 0.
With “GGACAGCCATGGACCGGTTTTCCCGGTAATCCGTATTTGCA (site GGACAGCCTTG)” the “recombinant UMI read abundance (log10)” value was 1.07.
In the case of “GGACCATCATGGACCGGTTTTCCCGGTAATCCGTATTTGTC (site GGACCATCTGA)”, the “recombinant UMI read abundance (log10)” value is reported as 2.27.
For “GGACCGGCATGGACCGGTTTTCCCGGTAATCCGTATTTGGG (site GGACCGGCTCC)”, the “recombinant UMI read abundance (log10)” value was 0.0163.
For “GGACTCACATGGACCGGTTTTCCCGGTAATCCGTATTTGTG (site GGACTCACTCA)”, the “recombinant UMI read abundance (log10)” value was 0.00312.
In the case of “GGACTTCCATGGACCGGTTTTCCCGGTAATCCGTATTTGAA (site GGACTTCCTTT)”, the “recombinant UMI read abundance (log10)” value is reported as 1.42.
With “GGAGACTCATGGACCGGTTTTCCCGGTAATCCGTATTTGGC (site GGAGACTCTGC)” the “recombinant UMI read abundance (log10)” value was 0.784.
For “GGAGACTCATGGACCGGTTTTCCCGGTAATCCGTATTTGTG (site GGAGACTCTCA)”, the “recombinant UMI read abundance (log10)” value was 1.74.
In the case of “GGAGAGGCATGGACCGGTTTTCCCGGTAATCCGTATTTGGT (site GGAGAGGCTAC)”, the “recombinant UMI read abundance (log10)” value is reported as 0.00324.
With “GGAGAGGCATGGACCGGTTTTCCCGGTAATCCGTATTTGGT (site GGAGCGGCTAC)” the “recombinant UMI read abundance (log10)” value was 0.00751.
With “GGAGAGGCATGGACCGGTTTTCCCGGTAATCCGTATTTGGT (site GGAGGGGCTAC)” the “recombinant UMI read abundance (log10)” value was 0.0239.
With “GGAGAGGCATGGACCGGTTTTCCCGGTAATCCGTATTTGGT (site GGAGTGGCTAC)” the “recombinant UMI read abundance (log10)” value was 0.0204.
For “GGAGATCCATGGACCGGTTTTCCCGGTAATCCGTATTTGCA (site GGAGATCCTTG)”, the “recombinant UMI read abundance (log10)” value was 0.
For “GGAGATTCATGGACCGGTTTTCCCGGTAATCCGTATTTGTT (site GAAGATTCTAA)”, the “recombinant UMI read abundance (log10)” value was 0.
For “GGAGATTCATGGACCGGTTTTCCCGGTAATCCGTATTTGTT (site GCAGATTCTAA)”, the “recombinant UMI read abundance (log10)” value was 0.
With “GGAGATTCATGGACCGGTTTTCCCGGTAATCCGTATTTGTT (site GGAGATTCTAA)” the “recombinant UMI read abundance (log10)” value was 2.52.
With “GGAGATTCATGGACCGGTTTTCCCGGTAATCCGTATTTGTT (site GTAGATTCTAA)” the “recombinant UMI read abundance (log10)” value was 0.
For “GGAGCTTCATGGACCGGTTTTCCCGGTAATCCGTATTTGGC (site GGAGCTTCTGC)”, the “recombinant UMI read abundance (log10)” value was 1.5.
For “GGAGGACCATGGACCGGTTTTCCCGGTAATCCGTATTTGGG (site AGAGGACCTCC)”, the “recombinant UMI read abundance (log10)” value was 0.
In the case of “GGAGGACCATGGACCGGTTTTCCCGGTAATCCGTATTTGGG (site CGAGGACCTCC)”, the “recombinant UMI read abundance (log10)” value is reported as 0.0177.
For “GGAGGACCATGGACCGGTTTTCCCGGTAATCCGTATTTGGG (site GGAGGACCTCC)”, the “recombinant UMI read abundance (log10)” value was 0.00471.
For “GGAGGACCATGGACCGGTTTTCCCGGTAATCCGTATTTGGG (site TGAGGACCTCC)”, the “recombinant UMI read abundance (log10)” value was 0.00615.
In the case of “GGAGGTTCATGGACCGGTTTTCCCGGTAATCCGTATTTGAT (site GGAGGTTCTAT)”, the “recombinant UMI read abundance (log10)” value is reported as 1.87.
With “GGAGTAGCATGGACCGGTTTTCCCGGTAATCCGTATTTGTC (site GGAGTAGCTGA)” the “recombinant UMI read abundance (log10)” value was 1.98.
With “GGAGTGGCATGGACCGGTTTTCCCGGTAATCCGTATTTGAT (site GGAGTGGCTAA)” the “recombinant UMI read abundance (log10)” value was 0.00289.
With “GGAGTGGCATGGACCGGTTTTCCCGGTAATCCGTATTTGAT (site GGAGTGGCTAC)” the “recombinant UMI read abundance (log10)” value was 0.0174.
With “GGAGTGGCATGGACCGGTTTTCCCGGTAATCCGTATTTGAT (site GGAGTGGCTAG)” the “recombinant UMI read abundance (log10)” value was 0.
With “GGAGTGGCATGGACCGGTTTTCCCGGTAATCCGTATTTGAT (site GGAGTGGCTAT)” the “recombinant UMI read abundance (log10)” value was 1.87.
For “GGAGTGGCATGGACCGGTTTTCCCGGTAATCCGTATTTGTT (site GGAGTGGCTAA)”, the “recombinant UMI read abundance (log10)” value was 1.06.
For “GGAGTGGCATGGACCGGTTTTCCCGGTAATCCGTATTTGTT (site GGAGTGGCTAC)”, the “recombinant UMI read abundance (log10)” value was 0.00283.
With “GGAGTGGCATGGACCGGTTTTCCCGGTAATCCGTATTTGTT (site GGAGTGGCTAG)” the “recombinant UMI read abundance (log10)” value was 1.76.
With “GGAGTGGCATGGACCGGTTTTCCCGGTAATCCGTATTTGTT (site GGAGTGGCTAT)” the “recombinant UMI read abundance (log10)” value was 0.767.
For “GGATAAACATGGACCGGTTTTCCCGGTAATCCGTATTTGCC (site GGATAAACTGG)”, the “recombinant UMI read abundance (log10)” value was 2.49.
With “GGATAAACATGGACCGGTTTTCCCGGTAATCCGTATTTGCC (site GGATACACTGG)” the “recombinant UMI read abundance (log10)” value was 1.01.
In the case of “GGATAAACATGGACCGGTTTTCCCGGTAATCCGTATTTGCC (site GGATAGACTGG)”, the “recombinant UMI read abundance (log10)” value is reported as 0.
In the case of “GGATAAACATGGACCGGTTTTCCCGGTAATCCGTATTTGCC (site GGATATACTGG)”, the “recombinant UMI read abundance (log10)” value is reported as 0.
In the case of “GGATACACATGGACCGGTTTTCCCGGTAATCCGTATTTGCC (site GGATAAACTGG)”, the “recombinant UMI read abundance (log10)” value is reported as 0.
For “GGATACACATGGACCGGTTTTCCCGGTAATCCGTATTTGCC (site GGATACACTGG)”, the “recombinant UMI read abundance (log10)” value was 2.97.
With “GGATACACATGGACCGGTTTTCCCGGTAATCCGTATTTGCC (site GGATAGACTGG)” the “recombinant UMI read abundance (log10)” value was 0.
In the case of “GGATACACATGGACCGGTTTTCCCGGTAATCCGTATTTGCC (site GGATATACTGG)”, the “recombinant UMI read abundance (log10)” value is reported as 0.
In the case of “GGATAGACATGGACCGGTTTTCCCGGTAATCCGTATTTGCA (site GGATAGACTAG)”, the “recombinant UMI read abundance (log10)” value is reported as 0.763.
